According to patent US11384079B2, “6-5 fused rings as C5a inhibitors” (CHEMOCENTRYX, INC., priority 2017, dated 2022):

molecular target: T1, C5aR (Homo sapiens, UniProt P21730); experiment: chemotaxis assay (C5aR mediated migration); type: cell-based; details: migration of U937 or neutrophil cells toward C5a (0.03 nM), 1.5 hours at 37° C., read-out: Mig IC50
T1 construct: U937 cells are a monocytic cell line which express C5aR; host or cells: U937 cells (cAMP treated) or isolated neutrophils
T1 sequence (P21730 1-350): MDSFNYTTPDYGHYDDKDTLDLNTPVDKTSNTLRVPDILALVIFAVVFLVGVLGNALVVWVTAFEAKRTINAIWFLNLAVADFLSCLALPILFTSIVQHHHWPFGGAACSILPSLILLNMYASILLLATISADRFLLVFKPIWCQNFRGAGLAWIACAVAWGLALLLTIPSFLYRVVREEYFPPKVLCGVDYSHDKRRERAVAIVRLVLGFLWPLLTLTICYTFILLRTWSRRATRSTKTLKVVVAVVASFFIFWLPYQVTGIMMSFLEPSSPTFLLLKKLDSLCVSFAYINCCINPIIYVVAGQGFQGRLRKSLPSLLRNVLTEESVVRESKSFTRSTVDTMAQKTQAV
Procedure: U937 cells are a monocytic cell line which express C5aR, and are available from ATCC (VA). […] Cells were grown under 5% CO2/95% air, 100% humidity at 37° C. and subcultured twice weekly at 1:6 (cells were cultured at a density range of 1×10^5 to 2×10^6 cells/mL) and harvested at 1×10^6 cells/mL. Prior to assay, cells are treated overnight with 0.5 mM of cyclic AMP (Sigma, Ohio) and washed once prior to use. cAMP treated U937 cells can be used in C5aR ligand binding and functional assays.
Optionally, human or murine neutrophils can be used to assay for compound activity. Neutrophils may be isolated from fresh human blood using density separation and centrifugation. Briefly, whole blood is incubated with equal parts 3% dextran and allowed to separate for 45 minutes. After separation, the top layer is layered on top of 15 mls of Ficoll (15 mls of Ficoll for every 30 mls of blood suspension) and centrifuged for 30 minutes at 400×g with no brake. The pellet at the bottom of the tube is then isolated and resuspended into PharmLyse RBC Lysis Buffer (BD Biosciences, San Jose, Calif.) after which the sample is again centrifuged for 10 minutes at 400×g with brake. The remaining cell pellet is resuspended as appropriate and consists of isolated neutrophils.
Optionally, compounds may be further assayed for their ability to inhibit chemotaxis in cells. Chemotaxis assays are performed using 5 μm pore polycarbonate, polyvinylpyrrolidone-coated filters in 96-well chemotaxis chambers (Neuroprobe; Gaithersburg, Md.) using chemotaxis buffer (Hank's balanced salt solution (HBSS) and 1% FBS). C5aR ligands (i.e., C5a, R&D Systems; Minneapolis, Minn.) are use to evaluate compound mediated inhibition of C5aR mediated migration. Other chemokines (i.e., SDF-1α; R&D Systems; Minneapolis, Minn.) are used as specificity controls. […] The chambers are incubated 1.5 hours at 37° C., and the number of cells in the lower chamber quantified either by direct cell counts in five high powered fields per well or by the CyQuant assay (Molecular Probes), a fluorescent dye method that measures nucleic acid content and microscopic observation.

IC50 [nM]	Structure (SMILES)
< 5	CCc1cccc(CC)c1-n1nc2c(c1-c1ccc(Cl)c3[nH]cc(C)c13)CN(c1ncc(C(F)(F)F)cc1F)CC2 [Example 1.146]
< 5	CCc1cccc(CC)c1-n1nc2c(c1-c1ccc(Cl)c3[nH]ccc13)CN(c1ncc(C(F)(F)F)cc1F)CC2 [Example 1.185]
< 5	CCc1cccc(CC)c1-n1nc2c(c1-c1ccc(Cl)c3[nH]ccc13)CN(c1nccc(OC)n1)CC2 [Example 1.113]
50 to 500	CCc1cccc(CC)c1-n1nc2c(c1-c1ccc(C(C)(C)O)c3[nH]ccc13)CN(c1ncc(C(F)(F)F)cc1F)CC2 [Example 1.165]
< 5	CCc1cccc(CC)c1-n1nc2c(c1-c1ccc(Cl)c3[nH]ccc13)CN(c1ncc(OC(C)C)cn1)CC2 [Example 1.063]
< 5	CCc1cccc(CC)c1-n1nc2c(c1-c1ccc(C(=O)OC)c3[nH]ccc13)CN(c1ncc(C(F)(F)F)cc1F)CC2 [Example 1.172]
< 5	CCc1cccc(CC)c1-n1nc2c(c1-c1ccc(F)c3[nH]ccc13)CN(c1ncc(C)cn1)CC2 [Example 1.177]
5 to 50	CCc1cccc(CC)c1-n1nc2c(c1-c1ccc(Cl)c3[nH]ccc13)CN(c1ncc(C)c(CO)n1)CC2 [Example 1.072]
< 5	CCc1cccc(CC)c1-n1nc2c(c1-c1ccc(Cl)c3[nH]ccc13)CN(c1ncc(F)cc1Cl)CC2 [Example 1.159]
5 to 50	CCc1cccc(CC)c1-n1nc2c(c1-c1ccc(Cl)c3[nH]ncc13)CN(c1ncc(C(F)(F)F)cc1F)CC2 [Example 1.119]
< 5	CCc1cccc(CC)c1-n1nc2c(c1-c1ccc(Cl)c3[nH]ccc13)CN(c1ncc(C(C)(C)O)cn1)CC2 [Example 1.074]
< 5	CCc1cccc(CC)c1-n1nc2c(c1-c1ccc(F)c3[nH]ccc13)CN(c1ncc(C(F)(F)F)cn1)CC2 [Example 1.179]
< 5	CCc1cccc(CC)c1-n1nc2c(c1-c1ccc(Cl)c3[nH]ccc13)CN(c1nc(C)cc(C)n1)CC2 [Example 1.148]
< 5	CCc1cccc(CC)c1-n1nc2c(c1-c1ccc(Cl)c3[nH]ccc13)CN(c1ncc(C(F)(F)F)cc1C)CC2 [Example 1.088]
< 5	CCc1cccc(CC)c1-n1nc2c(c1-c1ccc(Cl)c3[nH]ccc13)CN(c1ncc(OC)cn1)CC2 [Example 1.126]

More lines, now with the values behind:

Structure (SMILES)	IC50 [nM]
CCc1cccc(CC)c1-n1nc2c(c1-c1c(F)cc(CO)c3[nH]ccc13)CN(c1ncc(C3CC3)cn1)CC2 [Example 1.066]	< 5
CCc1cccc(CC)c1-n1nc2c(c1-c1ccc3[nH]ccc3c1)CN(Cc1cc(Cl)ccc1Cl)CC2 [Example 1.227]	< 5
CCc1cccc(CC)c1-n1nc2c(c1-c1cc(F)c(OC)c3[nH]ccc13)CN(c1ncc(C(F)(F)F)cc1F)CC2 [Example 1.061]	< 5
CCOc1c(F)cc(-c2c3c(nn2-c2c(CC)cccc2CC)CCN(c2ncc(C(F)(F)F)cn2)C3)c2cc[nH]c12 [Example 1.024]	< 5
CCc1cccc(CC)c1-n1nc2c(c1-c1nccc3[nH]ncc13)CN(c1ncc(C(F)(F)F)cn1)CC2 [Example 1.015]	5 to 50
CCc1cccc(CC)c1-n1nc2c(c1-c1ccc3[nH]ccc3n1)CN(c1ncc(C(F)(F)F)cn1)CC2 [Example 1.010]	> 500
CCc1cccc(CC)c1-n1nc2c(c1-c1cc(F)c(CO)c3[nH]ccc13)CN(c1ncc(C(C)(C)O)cn1)CC2 [Example 1.068]	5 to 50
CCc1cccc(CC)c1-n1nc2c(c1-c1cc(F)c(OC)c3[nH]ccc13)CN(c1ncc(C3CC3)cn1)CC2 [Example 1.050]	< 5
CCc1cccc(CC)c1-n1nc2c(c1-c1c(F)cc(OC)c3[nH]ccc13)CN(c1ncc(C(F)(F)F)cc1F)CC2 [Example 1.045]	< 5
CCc1cccc(CC)c1-n1nc2c(c1-c1cc(F)c(F)c3[nH]ccc13)CN(c1ncc(C(C)C)cn1)CC2 [Example 1.117]	5 to 50
Cc1cccc(OCC(C)C)c1-n1nc2c(c1-c1ccc3[nH]nc(C)c3c1)CN(c1ncc(C(F)(F)F)cc1F)CC2 [Example 1.215]	> 500
Cc1cccc(OCC(C)C)c1-n1nc2c(c1-c1ccc3[nH]ccc3c1)CN(Cc1ccc(C(F)(F)F)cc1C(F)(F)F)CC2 [Example 1.234]	5 to 50
C=C(C)c1nsc(N2CCc3nn(-c4c(C)cccc4OCC(C)C)c(-c4ccc5[nH]ccc5c4)c3C2)n1 [Example 1.213]	5 to 50
CCc1cccc(CC)c1-n1nc2c(c1-c1ccc3[nH]cnc3c1)CN(c1ncc(C(F)(F)F)cn1)CC2 [Example 1.017]	> 500
CCc1cccc(CC)c1-n1nc2c(c1-c1c(F)cc(CO)c3[nH]ccc13)CN(c1ncc(C(C)C)cc1F)CC2 [Example 1.094]	< 5
Cc1cccc(C)c1-n1nc2c(c1-c1c(F)cc(C)c3[nH]ccc13)CN(c1ncc(C(C)C)cn1)CC2 [Example 1.096]	< 5

Structure (SMILES)	IC50 [nM]
CCc1cccc(CC)c1-n1nc2c(c1-c1cc(F)c(F)c3[nH]ccc13)CN(c1ncc(C(F)(F)F)cc1F)CC2 [Example 1.120]	5 to 50
CCc1cccc(CC)c1-n1nc2c(c1-c1c(F)cc(C)c3[nH]ccc13)CN(c1ncc(C(C)C)cn1)CC2 [Example 1.139]	< 5
CCc1cccc(CC)c1-n1nc2c(c1-c1c(F)cc(Cl)c3[nH]ccc13)CN(c1ncc(C(F)(F)F)cc1F)CC2 [Example 1.144]	< 5
CCc1cccc(CC)c1-n1nc2c(c1-c1cc(F)c(OC)c3[nH]ncc13)CN(c1ncc(C(F)(F)F)cn1)CC2 [Example 1.056]	< 5
CCc1cccc(CC)c1-n1nc2c(c1-c1ccc(OC)c3[nH]ccc13)CN(c1ncc(C(F)(F)F)cn1)CC2 [Example 1.087]	5 to 50
Cc1cccc(C)c1-n1nc2c(c1-c1ccc(Cl)c3[nH]ccc13)CN(c1ncc(C(C)C)cn1)CC2 [Example 1.151]	< 5
Cc1cccc(OCC(C)C)c1-n1nc2c(c1-c1ccc3[nH]ccc3c1)CN(c1ncc(C(F)(F)F)cc1Cl)CC2 [Example 1.216]	5 to 50
CCc1cccc(CC)c1-n1nc2c(c1-c1cnc(C)c3[nH]ccc13)CN(c1ncc(C(F)(F)F)cn1)CC2 [Example 1.027]	5 to 50
CCc1cccc(CC)c1-n1nc2c(c1-c1ccc(CO)c3[nH]ccc13)CN(c1ccc(C(F)(F)F)cn1)CC2 [Example 1.171]	< 5
Cc1cccc(C)c1-n1nc2c(c1-c1cc(F)c(C)c3[nH]ccc13)CN(c1ncc(C(F)(F)F)cn1)CC2 [Example 1.102]	5 to 50
Cc1cccc(C)c1-n1nc2c(c1-c1c(F)cc(C)c3[nH]ccc13)CN(c1ncc(C(F)(F)F)cc1F)CC2 [Example 1.095]	< 5
Cc1cccc(C)c1-n1nc2c(c1-c1cc(F)c(C)c3[nH]ccc13)CN(c1ncc(C(F)(F)F)cc1F)CC2 [Example 1.103]	5 to 50
Cc1cccc(C)c1-n1nc2c(c1-c1ccc3[nH]ncc3c1)CN(c1ncc(Cl)cc1Cl)CC2 [Example 1.192]	> 500
CCc1cccc(CC)c1-n1nc2c(c1-c1cc(F)c(F)c3[nH]ccc13)CN(c1ncc(C(F)(F)F)cn1)CC2 [Example 1.118]	5 to 50
CCc1cccc(CC)c1-n1nc2c(c1-c1ccc(Cl)c3[nH]cnc13)CN(c1ncc(C(F)(F)F)cn1)CC2 [Example 1.069]	< 5
CCc1cccc(CC)c1-n1nc2c(c1-c1ccc3[nH]cnc3c1Cl)CN(c1ncc(C(F)(F)F)cn1)CC2 [Example 1.009]	50 to 500
